Source: patent publication US4351948A, “Imidazole hydrazone derivatives” (priority 1980, dated 1982)
pIC50: −log10 of the molar value. Structures can show the parent of a compound that is named as a salt. Where two headings read alike, the source gives them in different places. One block for each compound: values may come before it.

Assays:
[1] = in vivo; conditions: male mice, 7 day; for LD12.5: p.o.
[2] = tested on: platelet thromboxane generation; test: Inhibition of platelet thromboxane generation (TxB2, collagen-stimulated human platelet rich plasma); format: cell-based; conditions: 10 min, read-out: Activity IC50 (50% inhibition of TxB2 generation)
Method: The compounds used according to the invention as anti-thrombotics were tested by the following method for their ability to inhibit platelet thromboxane generation.
Human venous blood was collected from healthy male donors, who had denied any medication in the previous 14 days. Nine volumes of blood were mixed with one volume of 3.24% trisodium citrate. The citrated blood was centrifuged at 160 g for 10 mins. at 22° C. to obtain platelet rich plasma (PRP). The platelets were then counted on a Coulter counter, and the platelet count was adjusted to 200,000 per μl with plasma.
The PRP was then dispensed as aliquots into micro-Eppendorf tubes, maintained at 37° C. in a dry bath. The compounds dissolved either in saline, ethanol, or DMSO were added in duplicate to the PRP aliquots to produce final concentrations of 0.3, 3 and 30 μg/ml. When ethanol and DMSO were used as the vehicle, triplicate controls containing the same percentage of vehicle as the test compounds were made. The final concentration or organic solvent was never more than 0.1%, which in previous experiments had no effect on TxB2 generation.
Following a 10 min. incubation with test compounds or vehicle, collagen was added to produce a final concentration of 8 μg/ml. The tubes were then whirly-mixed for 15 seconds and replaced in the dry bath for a further 10 minutes, controls received saline instead of collagen. The reaction was then stopped by rapid centrifugation, 15,000 g for 3 mins. The plasma was removed and frozen at -29° C. until assayed.
Briefly, 100 μl aliquots, in tricine buffered saline+0.8% gelatin (pH 8.0) of the following were incubated together for 1 hour at 37° C.: thromboxane Tx B2 (plasma extract, spiked plasma extract or standards 20 to 20,000 pg/ml), ^3 H--TxB2 (approximately 15,000 dpm) and anti-TxB2 antiserum (0.5 μg/100 μl). The free and protein bound ^3 H--TxB2 were separated by ammonium sulphate precipitation followed by centrifugation. 300 μl of the supernatant was added to an aqueous scintillation fluid, and the radioactivity present was counted in a liquid scintillation counter. The binding of ^3 H--TxB2 in the absence of added TxB2 was approximately 55%. The least amount of TxB2 to be detected accurately in the plasma was 0.08 ng/ml. Cross reactivity with other prostaglandins is less than 0.005% except PGD2 which is 1%.
Thus plasma samples were assayed to give a rough approximation of TxB2 content. The plasma was then appropriately diluted and assayed in duplicate to give accurate values.
The amount of TxB2 generated by the collagen was calculated by subtracting mean values obtained for the saline stimulated platelets from the mean values obtained from the collagen stimulated platelets. Then the amount of TxB2 generated in the presence of each concentration of compound was expressed as a % control and dose response curves were then constructed to determine the concentration of compound which produced a 50% inhibition.

[3] = tested on: C. sporogenes ATCC 19404; test: Antianaerobic activity, MIC by standard broth dilution method (Table II); format: cell-based; conditions: Clostridium sporogenes, ATCC19404, 24 h, read-out: Minimal Inhibitory Concentration (MIC)
Method: (§1) The activity of the compounds identified in the Table II below was tested for antianaerobic activity against one strain of Bacteroides fragilis, one strain of Bacteroides uniformis, one strain of Clostridium sporogenes and one strain of Trichomonas vaginalis as the test organism. The methods used involved determining the minimum inhibitory concentration by the standard broth dilution method. The values for metronidazole (2-methyl-5-nitro-1H-imidazole-1-ethanol) are given above for reference purposes. For convenience the compounds are referred to by an internal reference number (an HC number) and this is correlated with the number of the Example wherein its production is described.

[4] = tested on: B. fragilis ATCC 23745; test: as above; format: cell-based; conditions: Bacteroides fragilis, ATCC23745, 24 h, read-out: Minimal Inhibitory Concentration (MIC)
Method: as §1, with “The values for metronidazole (2-methyl-5-nitro-1H-imidazole-1-ethanol) are given above for reference purposes.” left out

[5] = tested on: B. uniformis ATCC 8492; test: as above; format: cell-based; conditions: Bacteroides uniformis, ATCC8492, 24 h, read-out: Minimal Inhibitory Concentration (MIC)
Method: as §1, with “The values for metronidazole (2-methyl-5-nitro-1H-imidazole-1-ethanol) are given above for reference purposes.” left out

[6] = tested on: T. vaginalis ATCC 30001; test: as above; format: cell-based; conditions: Trichomonas vaginalis, ATCC30001, 24 h, read-out: Minimal Inhibitory Concentration (MIC)
Method: as §1, with “The values for metronidazole (2-methyl-5-nitro-1H-imidazole-1-ethanol) are given above for reference purposes.” left out

[7] = collagen 8 μg/ml, human PRP, 10 min. incubation, 37° C.

Compound: C[C@@H]1[C@H](O)[C@@H](C)/C=C/C=C/C=C/C=C/C=C/C=C/C=C/[C@H](O[C@@H]2O[C@H](C)[C@@H](O)[C@H](N)[C@@H]2O)C[C@@H]2O[C@](O)(C[C@@H](O)C[C@@H](O)[C@H](O)CC[C@@H](O)C[C@@H](O)CC(=O)O[C@H]1C)C[C@H](O)[C@H]2C(=O)O [Amphotericin B]
LD12.5 [1]: 280 mg/kg

Compound: O=[N+]([O-])c1ccc(NN=C(Cn2ccnc2)c2ccccc2Cl)c([N+](=O)[O-])c1 [HC 336, 1-(2-chlorophenyl)-2-(1H-imidazol-1-yl) ethanone, 2,4-dinitrophenylhydrazone, hydrochloride]
pIC50 ([2]; Homo sapiens): 6.05

pIC50 [2, 7]: 4.68
Compound: FC(F)(F)c1ccccc1C(Cn1ccnc1)=NNc1c(Cl)cccc1Cl [HC 418, 1-(2-trifluoromethylphenyl)-2-(1H-imidazol-1-yl)ethanone, 2,6-dichlorophenylhydrazone, hydrochloride]

pIC50 [2, 7]: 6.10
Compound: Clc1cccc(Cl)c1NN=C(Cn1ccnc1)c1ccccc1 [HC 368, 1-phenyl-2-(1H-imidazol-1-yl)ethanone, 2,6-dichlorophenylhydrazone, hydrochloride]

pIC50 [2, 7]: 5.57
Compound: Clc1ccc(C(Cn2ccnc2)=NNc2c(Cl)cccc2Cl)c(Cl)c1 [HC 377, 1-(2,4-dichlorophenyl)-2-(1H-imidazol-1-yl)ethanone, 2,6-dichlorophenylhydrazone, hydrochloride]

pIC50 [2, 7]: < 4.10
Compound: Clc1ccc(/C(Cn2ccnc2)=N\Nc2ccccc2Cl)cc1 [HC 500, (E)-1-(4-chlorophenyl)-2-(1H-imidazol-1-yl)ethanone, 2-chlorophenylhydrazone, hydrochloride]

Compound: Nc1nc(=O)[nH]cc1F [5-Fluorocytosine]
LD50 at 168 h ([1]; mouse, in vivo, iv, read-out: LD50): 500 mg/kg | LD12.5 [1]: 500 mg/kg

pIC50 [2, 7]: 4.86
Compound: N#Cc1ccc(C(Cn2ccnc2)=NNc2c(Cl)cccc2Cl)cc1 [HC 416, 1-(4-cyanophenyl)-2-(1H-imidazol-1-yl)ethanone, 2,6-dichlorophenylhydrazone, hydrochloride]

pIC50 [2, 7]: 5.26
Compound: Fc1ccccc1C(Cn1ccnc1)=NNc1ccc(Cl)cc1Cl [HC 426, 1-(2-fluorophenyl)-2-(1H-imidazol-1-yl)ethanone, 2,4-dichlorophenylhydrazone, hydrochloride]

pIC50 [2, 7]: 5.31
Compound: Clc1ccc(C(Cn2ccnc2)=NNc2ccccc2)cc1 [HC 290, 1-(4-Chlorophenyl)-2-(1H-imidazol-1-yl)ethanone, phenylhydrazone, hydrochloride]

pIC50 [2, 7]: 5.57
Compound: Clc1ccc(C(Cn2ccnc2)=NNc2cc(Cl)cc(Cl)c2)cc1 [HC 346, 1-(4-chlorophenyl)-2-(1H-imidazol-1-yl) ethanone, 3,5-dichlorophenylhydrazone]

Compound: Clc1ccc(NN=C(Cn2ccnc2)c2ccc(Cl)cc2Cl)c(Cl)c1 [HC-380, 1-(2,4-dichlorophenyl)-2-(1H-imidazol-1-yl) ethanone, 2,4-dichlorophenylhydrazone, hydrochloride]
MIC ([3]; Test 1): 10 µg/mL | MIC ([3]; Test 2): 2.5 µg/mL | MIC ([3]; Test 3): 2.5 µg/mL | MIC ([4]; Test 1): 10 µg/mL | MIC ([4]; Test 2): 2.5 µg/mL | MIC ([4]; Test 3): 2.5 µg/mL | MIC ([5]; Test 1): 10 µg/mL | MIC ([5]; Test 2): 2.5 µg/mL | MIC ([5]; Test 3): 2.5 µg/mL | MIC ([6]; Test 1): 50 µg/mL | MIC ([6]; Test 2): 25 µg/mL | MIC ([6]; Test 3): 25 µg/mL

Compound: CC(C(=NNc1ccc(Cl)cc1Cl)c1ccc(Cl)cc1)n1ccnc1 (centres unmarked) [HC-433, 1(4-chlorophenyl)-2-(1H-imidazol-1-yl) propanone, 2,4-dichlorophenylhydrazone, hydrochloride]
MIC ([3]; Test 1): 1 µg/mL | MIC ([3]; Test 2): 2.5 µg/mL | MIC ([3]; Test 3): 2.5 µg/mL | MIC ([4]; Test 1): 1 µg/mL | MIC ([4]; Test 2): 2.5 µg/mL | MIC ([4]; Test 3): 2.5 µg/mL | MIC ([5]; Test 1): 0.5 µg/mL | MIC ([5]; Test 2): 5 µg/mL | MIC ([5]; Test 3): 2.5 µg/mL | MIC ([6]; Test 1): 75 µg/mL | MIC ([6]; Test 2): 50 µg/mL | MIC ([6]; Test 3): 50 µg/mL

Compound: Cl.Clc1cc(Cl)c(NN=C(Cn2ccnc2)c2ccccc2Cl)c(Cl)c1 [HC-523, 1-(2-chlorophenyl)-2-(1H-imidazol-1-yl)ethanone, 2,4,6-trichlorophenylhydrazone, hydrochloride]
MIC ([3]; Test 1): 2.5 µg/mL | MIC ([3]; Test 2): 2.5 µg/mL | MIC ([3]; Test 3): 5 µg/mL | MIC ([4]; Test 1): 7.5 µg/mL | MIC ([4]; Test 2): 5 µg/mL | MIC ([4]; Test 3): 7.5 µg/mL | MIC ([5]; Test 1): 5 µg/mL | MIC ([5]; Test 2): 2.5 µg/mL | MIC ([5]; Test 3): 5 µg/mL | MIC ([6]; Test 1): 50 µg/mL | MIC ([6]; Test 2): 50 µg/mL | MIC ([6]; Test 3): 50 µg/mL

Compound: Clc1ccc(NN=C(Cn2ccnc2)c2ccc(Br)cc2)c(Cl)c1 [HC-378, 1-(4-bromophenyl)-2-(1H-imidazol-1-yl) ethanone, 2,4-dichlorophenylhydrazone, hydrochloride]
MIC ([3]; Test 1): 50 µg/mL | MIC ([3]; Test 2): 25 µg/mL | MIC ([3]; Test 3): 25 µg/mL | MIC ([4]; Test 1): 10 µg/mL | MIC ([4]; Test 2): 2.5 µg/mL | MIC ([4]; Test 3): 2.5 µg/mL | MIC ([5]; Test 1): 10 µg/mL | MIC ([5]; Test 2): 2.5 µg/mL | MIC ([5]; Test 3): 5 µg/mL | MIC ([6]; Test 1): > 50 µg/mL | MIC ([6]; Test 2): > 50 µg/mL | MIC ([6]; Test 3): 50 µg/mL

Compound: O=[N+]([O-])c1cccc(C(Cn2ccnc2)=NNc2c(Cl)cccc2Cl)c1 [HC 402, 1-(3-nitrophenyl)-2-(1H-imidazol-1-yl)ethanone, 2,6-dichlorophenylhydrazone, hydrochloride]
pIC50 ([2]; Homo sapiens): 6.15

pIC50 [2, 7]: 5.44
Compound: Clc1ccccc1C(Cn1ccnc1)=NNc1c(Cl)cccc1Cl [HC 365, 1-(2-chlorophenyl)-2-(1H-imidazol-1-yl)ethanone, 2,6-dichlorophenylhydrazone, hydrochloride]

Compound: CC(C(=NNc1c(Cl)cc(Cl)cc1Cl)c1ccc(Cl)cc1)n1ccnc1 (centres unmarked) [HC-561, 1-(4-chlorophenyl)-2-(1H-imidazol-1-yl)propanone, 2,4,6-trichlorophenylhydrazone, hydrochloride]
MIC ([3]; Test 1): 1 µg/mL | MIC ([3]; Test 2): 1 µg/mL | MIC ([3]; Test 3): 1 µg/mL | MIC ([4]; Test 1): 1 µg/mL | MIC ([4]; Test 2): 2.5 µg/mL | MIC ([4]; Test 3): 5 µg/mL | MIC ([5]; Test 1): 5 µg/mL | MIC ([5]; Test 2): 7.5 µg/mL | MIC ([5]; Test 3): 7.5 µg/mL | MIC ([6]; Test 1): > 100 µg/mL | MIC ([6]; Test 2): > 100 µg/mL | MIC ([6]; Test 3): > 100 µg/mL
